Read-outs that look alike come from different tables or passages of the source.
Tests used:
[1] = biological target: T1, PRS (prolyl-tRNA synthetase) (Homo sapiens, UniProt P07814); assay: In vitro PRS enzyme activity inhibition experiment ([3H]proline, liquid scintillation); format: biochemical
T1 construct: the portion corresponding to PRS in cDNA of EPRS was subcloned; made in house
T1 sequence (P07814 1007-1512 limits assumed): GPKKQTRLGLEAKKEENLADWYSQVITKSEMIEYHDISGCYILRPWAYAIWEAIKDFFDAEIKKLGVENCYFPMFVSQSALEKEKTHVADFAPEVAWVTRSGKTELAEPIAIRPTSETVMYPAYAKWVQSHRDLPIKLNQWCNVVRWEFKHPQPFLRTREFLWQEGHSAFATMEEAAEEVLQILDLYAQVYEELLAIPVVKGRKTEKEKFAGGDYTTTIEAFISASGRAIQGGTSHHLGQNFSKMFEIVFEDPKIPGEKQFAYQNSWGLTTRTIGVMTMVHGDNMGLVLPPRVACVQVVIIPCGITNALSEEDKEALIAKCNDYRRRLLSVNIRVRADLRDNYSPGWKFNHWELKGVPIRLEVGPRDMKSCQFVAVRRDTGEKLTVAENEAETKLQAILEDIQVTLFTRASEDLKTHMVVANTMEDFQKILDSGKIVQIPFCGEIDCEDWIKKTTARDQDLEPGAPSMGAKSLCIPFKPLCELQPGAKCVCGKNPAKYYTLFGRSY
Experimental: In order to confirm the biological activities of the compounds prepared in Examples, % inhibition or IC50 values of PRS enzyme ([…]) activities were calculated.
Specifically, the portion corresponding to PRS in cDNA of EPRS was subcloned, and the obtained high-purity PRS protein was purified and used in the experiment. The compounds (1 μM) prepared in Examples were added into the reaction buffer (20 mM KPO4 (pH 7.4), 6 mM MgAc, 5 mM ATP, […] tRNA, 0.5 mM DTT, 20 mCi[^3H]proline (1 mCi/mL)) and allowed to react at 37° C. for 5 to 10 minutes. The reaction was terminated with 3M paper that was previously dried by addition of 5% TCA. The radioactivity was measured using a liquid scintillation counter.
IC50 values of the respective compounds were calculated and analyzed using Microsoft Excel or Sigma Plot 8.0. In Table 1, the results are divided into A, B and C according to the range of IC50. The case where the derived IC50 is 100 nM or less is represented by “A”, the case where the IC50 is 100 to 500 nM is represented by “B”, and the case where the IC50 is 500 nM or higher is represented by “C”.

NCI-H460 cells = assay: Cancer cell growth inhibition experiment (MTT assay); format: cell-based; conditions: Homo sapiens; NCI-H460 lung cancer cell line; 48 hours treatment; MTT cell viability
Experimental: NCI-H460 cells, lung cancer cell lines, were cultured in 5% CO2, 37° C. incubator using a flask for 75 cm^2 tissue culture. 96-well plates were used for the evaluation. These were prepared by differently applying at concentrations in the range of 6,000 to 12,000 cells/well according to the growth rate of the cell lines. The medium containing 5% FBS were dispensed in 200 μL/well and used. The medium were cultured for 24 hours. After confirming the cell status and dispensing form of a 96-well plate under a microscope, they were used for subsequent experiments. The compounds were evaluated at concentrations of 100, 30, 10, 3, 1, 0.3, 0.03, 0.01 μM. After removing the existing medium, the compounds with various concentrations were treated in an amount of 200 μL/well. The compounds-treated plates were further cultured for 48 hours, and the cell viabilities were measured by MTT assay to calculate IC50 values.
% Inhibition and IC50 values of the respective compounds were calculated and analyzed using Sigma Plot 8.0. The case where the derived IC50 is 5 μM or less is represented by “A”, the case where the IC50 is 5 to 30 μM is represented by “B”, and the case where the IC50 is 30 μM or higher is represented by “C”.

[2] = purified PRS protein subcloned from EPRS cDNA, 37° C., 5 to 10 minutes, read-out: PRS IC50

## O=C(C[C@H]1NCCC[C@@H]1O)Cn1cnc2c(Cl)c(Cl)ccc21 [Example 12, 1-(4,5-dichloro-1H-benzo[d]imidazol-1-yl)-3-((2R,3S)-3-hydroxypiperidin-2-yl)propan-2-one]
[1]; [2]
  IC50: < 0.1 µM
NCI-H460 cells
  IC50: ≤ 5 µM

## O=C(C[C@H]1NCCC[C@@H]1O)Cn1cnc2cc(Cl)c(Cl)cc21 [Example 25, 1-(5,6-dichloro-1H-benzo[d]imidazol-1-yl)-3-((2R,3S)-3-hydroxypiperidin-2-yl)propan-2-one]
[1]; [2]
  IC50: < 0.1 µM
NCI-H460 cells
  IC50: ≤ 5 µM

## O=C(C[C@H]1NCCC[C@@H]1O)Cn1c(CO)nc2cccc(OC(F)(F)F)c21 [Example 61, 1-(2-(hydroxymethyl)-7-(trifluoromethoxy)-1H-benzo[d]imidazol-1-yl)-3-((2R,3S)-3-hydroxypiperidin-2-yl)propan-2-one]
[1]; [2]
  IC50: > 0.5 µM
NCI-H460 cells
  IC50: ≥ 30 µM

## CN(C)Cc1nc2cc(Cl)c(Cl)cc2n1CC(=O)C[C@H]1NCCC[C@@H]1O [Example 51, 1-(5,6-dichloro-2-((dimethylamino)methyl)-1H-benzo[d]imidazol-1-yl)-3-((2R,3S)-3-hydroxypiperidin-2-yl)propan-2-one]
[1]; [2]
  IC50: > 0.5 µM
NCI-H460 cells
  IC50: ≥ 30 µM

## CCc1nc2cc(Cl)c(Cl)cc2n1CC(=O)C[C@H]1NCCC[C@@H]1O [Example 48, 1-(5,6-dichloro-2-ethyl-1H-benzo[d]imidazol-1-yl)-3-((2R,3S)-3-hydroxypiperidin-2-yl)propan-2-one]
[1]; [2]
  IC50: > 0.5 µM
NCI-H460 cells
  IC50: ≥ 30 µM

## Cc1c(Br)cnc2c1ncn2CC(O)C[C@H]1NCCC[C@@H]1O (stereo partly drawn) [Example 78, (2R,3S)-2-(3-(6-bromo-7-methyl-3H-imidazo[4,5-b]pyridin-3-yl)-2-hydroxypropyl)piperidin-3-ol]
[1]; [2]
  IC50: < 0.1 µM
NCI-H460 cells
  IC50: ≥ 30 µM

## O=C(C[C@H]1NCCC[C@@H]1O)Cn1cnc2cc(Br)c(Br)cc21 [Example 27, 1-(5,6-dibromo-1H-benzo[d]imidazol-1-yl)-3-((2R,3S)-3-hydroxypiperidin-2-yl)propan-2-one]
[1]; [2]
  IC50: < 0.1 µM
NCI-H460 cells
  IC50: 5 to 30 µM

## O=C(C[C@H]1NCCC[C@@H]1O)Cn1cnc2nc(C(F)(F)F)ccc21 [Example 30, 1-((2R,3S)-3-hydroxypiperidin-2-yl)-3-(5-(trifluoromethyl)-1H-imidazo[4,5-b]pyridin-1-yl)propan-2-one]
[1]; [2]
  IC50: > 0.5 µM
NCI-H460 cells
  IC50: ≥ 30 µM

## O=C(C[C@H]1NCCC[C@@H]1O)Cn1cnc2ccc(C(F)(F)F)cc21 [Example 7, 1-((2R,3S)-3-hydroxypiperidin-2-yl)-3-(6-(trifluoromethyl)-1H-benzo[d]imidazol-1-yl)propan-2-one]
[1]; [2]
  IC50: < 0.1 µM
NCI-H460 cells
  IC50: 5 to 30 µM

## OCc1nc2cc(Cl)c(Cl)cc2n1CC(O)C[C@H]1NCCC[C@@H]1O (stereo partly drawn) [Example 88, (2R,3S)-2-(3-(5,6-dichloro-2-(hydroxymethyl)-1H-benzo[d]imidazol-1-yl)-2-hydroxypropyl)piperidin-3-ol]
[1]; [2]
  IC50: 0.1 to 0.5 µM
NCI-H460 cells
  IC50: ≥ 30 µM

## O=C(C[C@H]1NCCC[C@@H]1O)Cn1cnc2ccc(Br)cc21 [Example 5, 1-(6-bromo-1H-benzo[d]imidazol-1-yl)-3-((2R,3S)-3-hydroxypiperidin-2-yl)propan-2-one]
[1]; [2]
  IC50: < 0.1 µM
NCI-H460 cells
  IC50: 5 to 30 µM

## O=C(C[C@H]1NCCC[C@@H]1O)Cn1cnc2cc(C(F)(F)F)ccc21 [Example 6, 1-((2R,3S)-3-hydroxypiperidin-2-yl)-3-(5-(trifluoromethyl)-1H-benzo[d]imidazol-1-yl)propan-2-one]
[1]; [2]
  IC50: 0.1 to 0.5 µM
NCI-H460 cells
  IC50: ≥ 30 µM

## O=C(C[C@H]1NCCC[C@@H]1O)Cn1c(CO)nc2ccc(C(F)(F)F)cc21 [Example 59, 1-(2-(hydroxymethyl)-6-(trifluoromethyl)-1H-benzo[d]imidazol-1-yl)-3-((2R,3S)-3-hydroxypiperidin-2-yl)propan-2-one]
[1]; [2]
  IC50: < 0.1 µM
NCI-H460 cells
  IC50: 5 to 30 µM

## O=C(C[C@H]1NCCC[C@@H]1O)Cn1cnc2cc(Br)ccc21 [Example 4, 1-(5-bromo-1H-benzo[d]imidazol-1-yl)-3-((2R,3S)-3-hydroxypiperidin-2-yl)propan-2-one]
[1]; [2]
  IC50: < 0.1 µM
NCI-H460 cells
  IC50: 5 to 30 µM

## Cc1c(Cl)cnc2c1ncn2CC(=O)C[C@H]1NCCC[C@@H]1O [Example 39, 1-(6-chloro-7-methyl-3H-imidazo[4,5-b]pyridin-3-yl)-3-((2R,3S)-3-hydroxypiperidin-2-yl)propan-2-one]
[1]; [2]
  IC50: < 0.1 µM
NCI-H460 cells
  IC50: ≤ 5 µM

## O=C(C[C@H]1NCCC[C@@H]1O)Cn1ccc2ncc(Br)cc21 [Example 94, 1-(6-bromo-1H-pyrrolo[3,2-b]pyridin-1-yl)-3-((2R,3S)-3-hydroxypiperidin-2-yl)propan-2-one]
[1]; [2]
  IC50: > 0.5 µM
NCI-H460 cells
  IC50: ≥ 30 µM

## CC(O)(C[C@H]1NCCC[C@@H]1O)Cn1cnc2ccccc21 (stereo partly drawn) [Example 80, (2R,3S)-2-(3-(1H-benzo[d]imidazol-1-yl)-2-hydroxy-2-methylpropyl)piperidin-3-ol]
[1]; [2]
  IC50: > 0.5 µM
NCI-H460 cells
  IC50: ≥ 30 µM

## O=C(C[C@H]1NCCC[C@@H]1O)Cn1cnc2c(Cl)c(Br)cnc21 [Example 42, 1-(6-bromo-7-chloro-3H-imidazo[4,5-b]pyridin-3-yl)-3-((2R,3S)-3-hydroxypiperidin-2-yl)propan-2-one]
[1]
  IC50: < 0.1 µM
NCI-H460 cells
  IC50: ≤ 5 µM

## O=C(C[C@H]1NCCC[C@@H]1O)Cn1cnc2cc(Br)cnc21 [Example 37, 1-(6-bromo-3H-imidazo[4,5-b]pyridin-3-yl)-3-((2R,3S)-3-hydroxypiperidin-2-yl)propan-2-one]
[1]; [2]
  IC50: < 0.1 µM
NCI-H460 cells
  IC50: ≤ 5 µM

## O[C@H]1CCCN[C@@H]1CC(F)(F)Cn1cnc2cc(Cl)c(Cl)cc21 [Example 82, (2R,3S)-2-(3-(5,6-dichloro-1H-benzo[d]imidazol-1-yl)-2,2-difluoropropyl)piperidin-3-ol]
[1]; [2]
  IC50: > 0.5 µM
NCI-H460 cells
  IC50: ≥ 30 µM

## Cc1c(Cl)ccc2c1ncn2CC(=O)C[C@H]1NCCC[C@@H]1O [Example 14, 1-(5-chloro-4-methyl-1H-benzo[d]imidazol-1-yl)-3-((2R,3S)-3-hydroxypiperidin-2-yl)propan-2-one]
[1]; [2]
  IC50: < 0.1 µM
NCI-H460 cells
  IC50: ≤ 5 µM

## O=C(C[C@H]1NCCC[C@@H]1O)Cn1c(CO)nc2cc(Cl)c(Cl)cc21 [Example 87, 1-(5,6-dichloro-2-(hydroxymethyl)-1H-benzo[d]imidazol-1-yl)-3-((2R,3S)-3-hydroxypiperidin-2-yl)propan-2-one]
[1]; [2]
  IC50: < 0.1 µM
NCI-H460 cells
  IC50: ≤ 5 µM

## O=C(C[C@H]1NCCC[C@@H]1O)Cn1cnc2c(C(F)(F)F)c(Br)ccc21 [Example 18, 1-(5-bromo-4-(trifluoromethyl)-1H-benzo[d]imidazol-1-yl)-3-((2R,3S)-3-hydroxypiperidin-2-yl)propan-2-one]
[1]; [2]
  IC50: < 0.1 µM
NCI-H460 cells
  IC50: 5 to 30 µM

## Cc1c(C#N)cnc2c1ccn2CC(=O)C[C@H]1NCCC[C@@H]1O [Example 95, 1-(3-((2R,3S)-3-hydroxypiperidin-2-yl)-2-oxopropyl)-4-methyl-1H-pyrrolo[2,3-b]pyridin-5-carbonitrile]
[1]
  IC50: > 0.5 µM
NCI-H460 cells
  IC50: ≥ 30 µM

## O=C(C[C@@H]1CCCN1)Cn1cnc2cc(Cl)c(Cl)cc21 [Example 90, (S)-1-(5,6-dichloro-1H-benzo[d]imidazol-1-yl)-3-(pyrrolidin-2-yl)propan-2-one]
[1]; [2]
  IC50: > 0.5 µM
NCI-H460 cells
  IC50: ≥ 30 µM

## O=C(C[C@H]1NCCC[C@@H]1O)Cn1cnc2c(C(F)(F)F)c(F)ccc21 [Example 17, 1-(5-fluoro-4-(trifluoromethyl)-1H-benzo[d]imidazol-1-yl)-3-((2R,3S)-3-hydroxypiperidin-2-yl)propan-2-one]
[1]; [2]
  IC50: < 0.1 µM
NCI-H460 cells
  IC50: 5 to 30 µM
